According to US8617563B2, “Antichlamydial agents” (Duke University, priority 2011, dated 2013):
Where no end group is shown, it is not given here.

Columns and labels:
[1] = system: epithelial cells infected with C. trachomatis; assay: Host cell death (condensed nuclei) in C. trachomatis infected cells; assay type: cell-based; details: dose-dependent, peptide at 12 hpi
Description: FIG. 11 depicts (A) that inhibiting CPAF activity induces host cell death. The indicated peptides (anti-CPAF peptide refers to SEQ ID NO:7) were added to infected cells 12 hpi and the percentage of infected cells with condensed nuclei was quantified at the indicated times. (B-C) Inhibition of CPAF activity induces apoptosis. Infected cells were treated with peptides and the percentage of AnnexinV-FITC positive (propidium iodide (PI) negative) was determined by flow cytometry (B). In parallel samples, cleavage of Caspase-3, a hallmark of apoptosome activation, was monitored by immunoblot analysis. Actin and MOMP are host and bacterial loading controls respectively. Staurosporine (2 μM)-treatment was used as a positive control and the pan-caspase inhibitor ZVAD-FMK were used as controls. (D) Cell death is blocked by a pan-Caspase inhibitor. Infected cells were treated as in (A) in the presence or absence of ZVAD-FMK, labeled with PI and analyzed by flow cytometry. Cells pre-treated with ZVAD-FMK and the control peptide lacked PI staining.
FIG. 12 depicts (A) low-magnification view of C. trachomatis LGV-L2 infected HeLa monolayers (30 h) treated with SEQ ID NO:7 or SEQ ID NO:11 peptides. […] HeLa cells infected with C. muridarum were treated with Ac-YVAD-CMK at 2 hpi, SEQ ID NO:7 peptide or SEQ ID NO:11 control peptide at 12 hpi and the percentage of infected cells with condensed nuclei was assessed at 48 hpi (F). […] The percentage of infected cells with condensed nuclei was assessed at 48 hpi (G). […] Cell death in infected and uninfected cells treated with CPAF inhibitory peptides or control peptides was determined by counting the number of condensed nuclei of ˜1000 cells.
(§1) FIG. 13 depicts (A) that Caspase-1 inhibitors block Chlamydia-mediated cell death. […] Cells were fixed and the percentage of cells with condensed nuclei determined at 24 hpi. […] Infected cells were labeled with a cell-permeable fluorescent substrate of Caspase-1 and treated with inhibitory peptides, and Caspase-1 activity was monitored by flow cytometry. […]

CPAF = CPAF (Chlamydia trachomatis serovar D, UniProt O84866); assay: FRET-based CPAF inhibition assay with model substrate SEQ ID NO:10; assay type: biochemical, C. trachomatis; parameters: 6xHis; made in house; host or cells: E. coli BL21 (DE3), plasmid pET30b-CPAF
Sequence of CPAF (O84866 276-601): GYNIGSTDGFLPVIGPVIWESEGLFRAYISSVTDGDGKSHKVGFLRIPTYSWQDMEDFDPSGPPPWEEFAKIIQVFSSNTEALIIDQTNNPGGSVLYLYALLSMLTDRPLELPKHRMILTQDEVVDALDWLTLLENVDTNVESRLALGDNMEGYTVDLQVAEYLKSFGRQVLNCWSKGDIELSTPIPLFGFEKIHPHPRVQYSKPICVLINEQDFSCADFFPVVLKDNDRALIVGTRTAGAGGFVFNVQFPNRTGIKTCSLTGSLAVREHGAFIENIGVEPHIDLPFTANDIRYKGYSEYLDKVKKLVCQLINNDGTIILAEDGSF
Sequence of CPAF (O84866 1-234, added parts left off): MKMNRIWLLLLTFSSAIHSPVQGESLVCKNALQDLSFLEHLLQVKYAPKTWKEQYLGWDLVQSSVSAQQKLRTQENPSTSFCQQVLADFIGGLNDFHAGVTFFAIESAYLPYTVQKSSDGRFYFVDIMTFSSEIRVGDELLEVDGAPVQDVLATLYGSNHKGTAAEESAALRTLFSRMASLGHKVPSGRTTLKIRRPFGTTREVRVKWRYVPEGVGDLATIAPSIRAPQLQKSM
Description: FRET-based assays comprised an Abz-tagged model CPAF substrate with an additional C-terminal 3-nitrotyrosine quencher:
The 3-nitrotyrosine moiety quenches Abz fluorescence until substrate cleavage occurs. FRET-based assays were performed in optical plates in a final volume of 100 μL containing 150 mM NaCl, 50 mM Tris pH 7.50, purified CPAF (62.5 nM), varying concentrations of model CPAF substrate (0.5 mM), and varying concentrations of each candidate compound (0-240 μM). IC50 values were determined by pre-incubating CPAF with varying concentrations of candidate compound for 5 min at room temperature prior to initiation of the reaction via the addition of model CPAF substrate. Reactions were initiated and read continuously at 420 nm for 10 minutes using a fluorescence microplate reader. The percentage of substrate converted was calculated using initial velocity over the first 90 seconds and converting RFU to concentration based on a standard curve with Abz followed by analysis in Graffit 6.0 using the equation of Example 8.

[2] = system: mouse lung fibroblasts infected with C. trachomatis and C. muridarum; assay: Cell death in infected mouse lung fibroblasts from ICE−/− and ASC−/− knockout mice; assay type: cell-based; details: knockout cells, unlike wild-type counterparts
Description: FIG. 12 depicts (A) low-magnification view of C. trachomatis LGV-L2 infected HeLa monolayers (30 h) treated with SEQ ID NO:7 or SEQ ID NO:11 peptides. (B) The frequency of condensed nuclei in treated cells is dependent on peptide concentration and Chlamydia infection. (C-D) Toxicity of CPAF inhibitors to Chlamydia-infected cells is observed in non-myeloid cells including human embryonic kidney cells HEK293 (C) and mouse embryo fibroblasts (D). […] (F-G) Cell death induced by anti-CPAF peptides requires Caspase-1 activation. HeLa cells infected with C. muridarum were treated with Ac-YVAD-CMK at 2 hpi, SEQ ID NO:7 peptide or SEQ ID NO:11 control peptide at 12 hpi and the percentage of infected cells with condensed nuclei was assessed at 48 hpi (F). […] The percentage of infected cells with condensed nuclei was assessed at 48 hpi (G). […] Cell death in infected and uninfected cells treated with CPAF inhibitory peptides or control peptides was determined by counting the number of condensed nuclei of ˜1000 cells.
as §1

With “SLFYSPMVPHFWAELRNHYATSGLKRRRRRRRRR-NH2 [SEQ ID NO:7]” the “Number of condensed nuclei in C. trachomatis infected cells” value [1] was “marked increase in the number of condensed nuclei”, the IC50 (CPAF) was 30 ± 6 nM and the “Host cell death in infected ICE−/− and ASC−/− mouse lung fibroblasts” value [2] was “resistant to host cell death”.
